Results taken from patent US12344623B2, “Thiazolopyridine derivatives as adenosine receptor antagonists” (Merck Patent GmbH, priority 2019, dated 2025).

Tests used:
Assay type in all cases: cell-based
[1] = target: human A2A receptor (Homo sapiens, UniProt P29274); assay: Functional A2A receptor activity, recombinant HEK293 cells, cAMP (HTRF), agonist NECA; design: expressed in transfected cells; host or cells: HEK293; settings: read-out: Functional A2A receptor activity, HEK293, cAMP, IC50
Protocol: (§1) The functional activities of human A2A, A2B, A1 and A3 receptors were determined by quantification of cAMP, being the second messenger for adenosine receptors.
(§2) Cells were seeded into 384-well plates, forskolin, test compounds and agonists (CPA for A1- and IB-MECA for A3-receptor) were added. After 30 min incubation, HTRF reagents (cAMP dynamic 2, Cis Bio) were added and the cellular cAMP levels were determined using the ENVISION (Perkin Elmer) plate reader. Obtained raw data were normalized against the inhibitor control and the neural control (DMSO) and the normalized data were fitted using GeneData software.

[2] = target: T1, human A3 receptor (Homo sapiens, UniProt P0DMS8); assay: Functional A3 receptor activity, recombinant CHO cells, cAMP (HTRF), forskolin, agonist IB-MECA; settings: recombinant CHO cells, forskolin, agonist IB-MECA; read-out: Functional A3 receptor activity, CHO, cAMP, IC50
T1 construct: expressed in transfected cells; host or cells: CHO
T1 sequence (P0DMS8 1-318): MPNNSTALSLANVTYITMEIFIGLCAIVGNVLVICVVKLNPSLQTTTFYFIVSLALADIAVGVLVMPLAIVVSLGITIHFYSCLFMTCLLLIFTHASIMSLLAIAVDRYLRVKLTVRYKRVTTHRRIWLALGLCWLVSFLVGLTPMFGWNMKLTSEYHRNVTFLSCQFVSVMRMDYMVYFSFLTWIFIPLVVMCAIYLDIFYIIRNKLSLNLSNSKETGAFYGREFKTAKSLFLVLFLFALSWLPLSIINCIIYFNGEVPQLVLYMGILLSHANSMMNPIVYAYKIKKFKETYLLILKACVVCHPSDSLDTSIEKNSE
Protocol: as §1
(§3) For human A1 and A3 receptors, recombinant CHO cells, expressing either A1 or A3-receptor, were used. As both receptors couple to Gi proteins, the assay protocol was adapted:
as §2

[3] = target: T2, human A1 receptor (Homo sapiens, UniProt P30542); assay: Functional A1 receptor activity, recombinant CHO cells, cAMP (HTRF), forskolin, agonist CPA; settings: recombinant CHO cells, forskolin, agonist CPA; read-out: Functional A1 receptor activity, CHO, cAMP, IC50
T2 construct: expressed in transfected cells; host or cells: CHO
T2 sequence (P30542 1-326): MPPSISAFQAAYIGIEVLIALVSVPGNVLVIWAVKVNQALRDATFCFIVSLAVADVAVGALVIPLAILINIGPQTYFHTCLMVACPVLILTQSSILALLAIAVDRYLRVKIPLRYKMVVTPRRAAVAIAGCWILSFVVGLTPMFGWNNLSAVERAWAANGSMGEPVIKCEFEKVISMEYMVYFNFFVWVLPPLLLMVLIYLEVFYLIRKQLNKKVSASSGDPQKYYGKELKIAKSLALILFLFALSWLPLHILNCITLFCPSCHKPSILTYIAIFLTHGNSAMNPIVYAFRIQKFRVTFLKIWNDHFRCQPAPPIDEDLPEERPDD
Protocol: as §1, §3, §2

[4] = target: T3, human A2B receptor (Homo sapiens, UniProt P29275); assay: Functional A2B receptor activity, recombinant HEK293 cells, cAMP (HTRF), agonist NECA; settings: read-out: Functional A2B receptor activity, HEK293, cAMP, IC50
T3 construct: expressed in transfected cells; host or cells: HEK293
T3 sequence (P29275 1-332): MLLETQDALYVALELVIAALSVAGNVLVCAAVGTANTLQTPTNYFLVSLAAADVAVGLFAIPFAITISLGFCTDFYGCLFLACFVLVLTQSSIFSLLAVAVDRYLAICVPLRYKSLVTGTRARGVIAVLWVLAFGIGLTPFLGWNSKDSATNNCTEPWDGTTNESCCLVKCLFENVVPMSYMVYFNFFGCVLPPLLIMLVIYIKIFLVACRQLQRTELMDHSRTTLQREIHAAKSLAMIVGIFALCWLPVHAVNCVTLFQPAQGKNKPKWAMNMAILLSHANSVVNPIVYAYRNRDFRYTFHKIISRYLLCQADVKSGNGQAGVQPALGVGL
Protocol: as §1, §2

Sequence of human A2A receptor (P29274 whole entry): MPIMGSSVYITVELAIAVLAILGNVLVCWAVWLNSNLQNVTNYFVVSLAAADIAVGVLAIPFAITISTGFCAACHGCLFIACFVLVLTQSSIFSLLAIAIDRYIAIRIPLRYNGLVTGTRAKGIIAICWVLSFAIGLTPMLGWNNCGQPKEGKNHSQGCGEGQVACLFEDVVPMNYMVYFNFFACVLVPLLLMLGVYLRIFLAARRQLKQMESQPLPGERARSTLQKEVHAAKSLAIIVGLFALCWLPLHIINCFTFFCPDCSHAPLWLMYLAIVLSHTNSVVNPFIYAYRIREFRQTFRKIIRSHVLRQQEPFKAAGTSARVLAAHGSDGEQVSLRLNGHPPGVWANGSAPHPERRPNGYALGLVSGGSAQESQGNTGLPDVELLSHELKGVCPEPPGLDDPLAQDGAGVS

| Compound | IC50 [1] | IC50 [2] | IC50 [3] | IC50 [4] |
| --- | --- | --- | --- | --- |
| COc1nc(F)c(C2CCOCC2)c2sc(NC(=O)C3CC3)nc12 [Compound 28, Cyclopropanecarboxylic acid [6-fluoro-4-methoxy-7-(tetrahydro-pyran-4-yl)-thiazolo[4,5-c]pyridin-2-yl]-amide] | < 10 nM | < 1000 nM | < 1000 nM | < 100 nM |
| COc1nc(F)c(-c2ccccc2)c2sc(NC(=O)c3c[nH]cn3)nc12 [Compound 32, 1H-Imidazole-4-carboxylic acid (6-fluoro-4-methoxy-7-phenyl-thiazolo[4,5-c]pyridin-2-yl)-amide] | < 10 nM | > 1000 nM | < 100 nM | < 10 nM |
| COc1nc(F)c(C2CCOCC2)c2sc(NC(=O)N3CCC4(CCOC4)C3)nc12 (centres unmarked) [Compound 33, N-[6-fluoro-4-methoxy-7-(oxan-4-yl)-[1,3]thiazolo[4,5-c]pyridin-2-yl]-2-oxa-7-azaspiro[4.4]nonane-7-carboxamide] | < 10 nM | > 1000 nM | > 1000 nM | < 100 nM |
| COc1nc(F)c(C2CCOCC2)c2sc(NC(=O)N3CC[C@]4(CCCOC4)C3)nc12 [Compound 34, (R)-7-Oxa-2-aza-spiro[4.5]decane-2-carboxylic acid [6-fluoro-4-methoxy-7-(tetrahydro-pyran-4-yl)-thiazolo[4,5-c]pyridin-2-yl]-amide] | < 10 nM | > 1000 nM | > 1000 nM | < 100 nM |
| COc1ncc(C2=CC(=O)CC2)c2sc(NC(=O)N3CCC4(CCOCC4)C3)nc12 [Compound 40, 8-Oxa-2-aza-spiro[4.5]decane-2-carboxylic acid [4-methoxy-7-(3-oxo-cyclopent-1-enyl)-thiazolo[4,5-c]pyridin-2-yl]-amide] | < 100 nM | > 1000 nM | > 1000 nM | < 100 nM |
| COc1ncc(C2=CCOC2)c2sc(NC(=O)c3c[nH]cn3)nc12 [Compound 43, N-[7-(2,5-dihydrofuran-3-yl)-4-methoxy-[1,3]thiazolo[4,5-c]pyridin-2-yl]-1H-imidazole-4-carboxamide] | < 10 nM | > 1000 nM | < 1000 nM | < 100 nM |
| COc1ncc(C2=CCOC2)c2sc(NC(=O)N3CCC4(CCOCC4)C3)nc12 [Compound 44, N-[7-(2,5-dihydrofuran-3-yl)-4-methoxy-[1,3]thiazolo[4,5-c]pyridin-2-yl]-8-oxa-2-azaspiro[4.5]decane-2-carboxamide] | < 100 nM | > 1000 nM | > 1000 nM | < 100 nM |
| COc1ncc(C2=CCOC2)c2sc(NC(=O)N3CCC4(CCCOC4)C3)nc12 (centres unmarked) [Compound 45, N-[7-(2,5-dihydrofuran-3-yl)-4-methoxy-[1,3]thiazolo[4,5-c]pyridin-2-yl]-7-oxa-2-azaspiro[4.5]decane-2-carboxamide] | < 100 nM | > 1000 nM | > 1000 nM | < 100 nM |
| COc1ncc(-c2ccccc2)c2sc(NC(=O)c3c[nH]cn3)nc12 [Compound 60, 1H-Imidazole-4-carboxylic acid (4-methoxy-7-phenyl-thiazolo[4,5-c]pyridin-2-yl)-amide] | < 10 nM | < 1000 nM | < 1000 nM | < 10 nM |
| COc1ncc(C2CCCCC2)c2sc(NC(=O)N3CCC4(CCOCC4)C3)nc12 [Compound 62, 8-Oxa-2-aza-spiro[4.5]decane-2-carboxylic acid (7-cyclohexyl-4-methoxy-thiazolo[4,5-c]pyridin-2-yl)-amide] | < 10 nM | > 1000 nM | > 1000 nM | < 100 nM |
| COc1ncc(C2=CCSCC2)c2sc(NC(=O)N3CCC4(CCOCC4)C3)nc12 [Compound 64, 8-Oxa-2-aza-spiro[4.5]decane-2-carboxylic acid [7-(3,6-dihydro-2H-thiopyran-4-yl)-4-methoxy-thiazolo[4,5-c]pyridin-2-yl]-amide] | < 10 nM | > 1000 nM | < 1000 nM | < 10 nM |
